Assays:
[1] = test system: A549; experiment: MTT cell viability assay, A549; type: cell-based, human; conditions: Homo sapiens, A549, 72 h, mean ± SD, n = 3
Protocol: (§1) All new tetrahydroquinoline derivatives were assessed for cytotoxicity on a broad panel of cancer and normal cell lines, using the MTT assay. The half-inhibitory growth inhibitory concentration (IC50) values of each compound were calculated after 72 h of treatment and presented in Table 1. […] In this assay, the IC50 value of 5-FU and ETP was recorded as a positive control.
(§2) Non-small cell lung cancer cells A549 (CCL-185), breast cancer cells MCF-7 ([…]), hepatocarcinoma cells HepG2 ([…]), normal kidney cells HEK293 (CRL-1573), and osteosarcoma cells U-2 OS (HTB-96) were obtained from the American Type Culture Collection. HCT-116 cell line was kindly provided by prof. Bert Vogelstein (Johns Hopkins University, Howard Hughes Medical Institute, USA). The obtained A549 and MCF-7 cells were cultured in RPMI-1640 medium, HepG2 cells in Minimum Essential Medium Eagle medium, HEK-293 cells in Dulbecco’s Modified Eagle’s medium, and U-2 OS and HCT-116 cells in McCoy’s […] medium. All culture media were supplemented with 10% fetal bovine serum, 2 mM L-glutamine, and antibiotics (penicillin 62.6 µg/ml and streptomycin 40 µg/ml; Sigma-Aldrich). Both cancer and normal cells were cultured at 37 °C under a humidified atmosphere with 5% or 10% CO2 and routinely screened for Mycoplasma contamination. All materials and reagents were obtained from Corning unless stated otherwise.
(§3) The cytotoxic effect of the synthesized compounds was assessed by the MTT (4,5-dimethylthiazol-2-yl-2,5-diphenyltetrazoliumbromide; Sigma-Aldrich) assay. Briefly, the cells were seeded into 96-well transparent flat-bottom plates and allowed to attach overnight. On the next day, the cells were treated with compounds in the range of 0–50 µM for 72 h. Dimethyl sulfoxide (DMSO; Merck) and 5-fluorouracil (5-FU; Sigma-Aldrich) were used as a reference. After exposure to the compounds, 20 μl of the MTT solution at a concentration of 4 mg/ml was added to each well, and the plates were incubated again for 2–3 h at 37 °C. Next, the media in the wells was replaced with 100 μl DMSO to solubilize the formazan crystals. The absorbance was measured at 540 nm using an ASYS UVM340 microplate reader (Biochrom Ltd.). The IC50 value of the compounds was calculated using GraphPad Prism 9 software, based on the curves plotted with survival as a function of dose, averaged from three independent experiments.

[2] = test system: Hela; experiment: MTT cell viability assay, Hela; type: cell-based; conditions: Homo sapiens, HeLa, 72 h, mean ± SD, n = 3
Protocol: as §1, §3

[3] = test system: A549 cells; experiment: Cell cycle progression (propidium iodide, flow cytometry); type: cell-based, human; conditions: A549, IC50 concentration
Protocol: A549 and HCT-116 cells were incubated with the tested compounds at their IC50 concentrations for 24, 48, and 72 h. DMSO (1% v/v) was used as a reference (Sigma-Aldrich). After incubation, the cells were collected in trypsin, fixed with 75% ice-cold ethanol, and stored overnight at − 20 °C. Then, the cells were stained with 20 μg/ml propidium iodide (Sigma-Aldrich) and 50 μg/ml RNaseA (Thermo Fisher Scientific) in phosphate-buffered saline (PBS) for 30 min at room temperature (RT). The content of DNA in cells was determined by flow cytometry (Guava EasyCyte 8 cell sorter; Merck Millipore) using FlowJo software v10. Each experiment was repeated three times.

[4] = test system: MCF-7; experiment: MTT cell viability assay, MCF-7; type: cell-based, human; conditions: Homo sapiens, MCF7, 72 h, mean ± SD, n = 3
Protocol: as §1, §2, §3

[5] = test system: caspase-3/7 in A549 cells; experiment: Caspase-3/7 activation (flow cytometry); type: cell-based, human; conditions: A549, IC50 concentration
Protocol: Apoptosis induction via both intrinsic and extrinsic pathways is mediated by caspase cascade events. Therefore, in this study, the ability of 4a to activate two effector caspases (caspase-3 and caspase-7) was evaluated by flow cytometry.
Cells were seeded in a 5-cm^2 dish at a density of 15 × 10^5 cells per dish and allowed to attach overnight at 37 °C. Then, compounds at IC50 concentrations were added to the medium. After 6, 24, and 48 h, the cells were harvested and washed with PBS. Subsequently, the cells were resuspended in the binding buffer and stained with Annexin V Alexa Fluor™ 488 conjugate (#A13201; Thermo Fisher Scientific) for the apoptosis assay and with CellEvent™ Caspase-3/7 Green Flow Cytometry Assay Kit (#C10427; Thermo Fisher Scientific) for the activation of caspase-3/7, as per the manufacturer’s instructions. After incubation, the samples were immediately analyzed using a Guava EasyCyte 8 cell sorter (Merck Millipore) and FlowJo software v10. Each experiment was repeated three times.

IC50 [1]: 11.3 ± 0.67 µM
IC50 [2]: > 50 µM
IC50 [4]: > 50 µM
Structure (SMILES): O=c1[nH]c2c(c(-c3ccccc3)c1Cc1cccc3ccccc13)CCCC2 [Compound 4a, 3-(1-naphthylmethyl)-4-phenyl-5,6,7,8-tetrahydro-1H-quinolin-2-one]
fraction of cells at the G0/G1 phase [3]: time-dependent decrease
fraction of cells in sub-G0 phase [3]: concomitant increase
fraction of cells in G2 phase ([3]; 24 h (DMSO 3.2%)): 15.5%
fraction of cells in G2 phase ([3]; 48 h (DMSO 3.2%)): 33.8%
activation of caspase-3/7 ([5]; 24 and 48 h, vs vehicle): 3.9 ± 0.33 fold
increase in the activity of caspase-3/7 ([5]; 6 h): 2.32 ± 0.05 fold

Reference: paper PMC9646836, “Tetrahydroquinolinone derivatives exert antiproliferative effect on lung cancer cells through apoptosis induction” (Scientific Reports, 2022)
